Experimental findings from US12624057B2, “Bisphosphonate quinolone conjugates and uses thereof” (BIOVINC, LLC, priority 2016, dated 2026) are described below.

Each structure is given as a SMILES string. Entries after “also recorded” stand apart in the source; their conditions may differ.

Holding throughout (type): cell-based, Staphylococcus aureus
Experiment [1] has as its system biofilms of S. aureus strain ATCC-6538. Briefly: Preformed biofilms on HA discs, S. aureus. To be noted: HA as substrate. How it is done:
Antimicrobial susceptibility testing of BP-ciprofloxacin against preformed biofilms of S. aureus strain ATCC-6538 and P. aeruginosa strain ATCC-15442: Strains cultured on appropriate agar plates (Columbia agar plate for S. aureus; MacConkey agar plate for P. aeruginosa) were transferred to liquid microbiological media and incubated for 24 h/37° C. under aerobic conditions. After incubation, strains were diluted to the density of 1 MF. The microbial dilutions were introduced to wells of 24-well plates containing HA discs as a substrate, or simply to polystyrene wells where the bottom surface of the wells served as the substrate for biofilm development. Strains were incubated at 37° C. for 4 hrs. Next, the microbe-containing solutions were removed from the wells. The surfaces, HA discs and polystyrene plates, were gently rinsed to leave adhered cells and to remove planktonic or loosely-bound microbes. Surfaces prepared in this manner were immersed in fresh TSB medium containing 0.24-125 mg/L of BP-ciprofloxacin conjugate. After 24 hrs of incubation at 37° C. the surfaces were rinsed using physiological saline solution and transferred to 1 mL of 0.5% saponin (Sigma-Aldrich, St Louis, MO). The surfaces were vortex-mixed vigorously for 1 minute to detach cells. Subsequently, all microbial suspensions were diluted 10 to 10^9 times. Each dilution ([…]) was cultured on the appropriate stable medium (MacConkey, Columbia for P. aeruginosa and S. aureus, respectively) and incubated at 37-C for 24 hours. After this time, the microbial colonies were counted and the number of cells forming biofilm was assessed. Results were presented as the mean number of CFU per square millimeter surface±standard error of the mean. To estimate the exact surface area of HA discs, x-ray tomographic analysis was applied. For estimation of the area of test plate bottoms, the equation for circle area: πr2 was applied.
Antimicrobial susceptibility testing of 6 against preformed biofilms of S. aureus strain ATCC-6538 and P. aeruginosa strain ATCC-15442: Strains cultured on appropriate agar plates (Columbia agar plate for S. aureus; MacConkey agar plate for P. aeruginosa) were transferred to liquid microbiological media and incubated for 24 hrs/37° C. under aerobic conditions. After incubation, strains were diluted to the density of 1 MF. The microbial dilutions were introduced to wells of 24-well plates containing HA discs as a substrate, or simply to polystyrene wells where the bottom surface of the wells served as the substrate for biofilm development. Strains were incubated at 37° C. for 4 hrs. Next, the microbe-containing solutions were removed from the wells. The surfaces, HA discs and polystyrene plates, were gently rinsed to leave adhered cells and to remove planktonic or loosely-bound microbes. […] After 24 hrs of incubation at 37° C. the surfaces were rinsed using physiological saline solution and transferred to 1 mL of 0.5% saponin (Sigma-Aldrich, St Louis, MO). The surfaces were vortex-mixed vigorously for 1 minute to detach cells. Subsequently, all microbial suspensions were diluted 10-1 to 10-9 times. Each dilution ([…]) was cultured on the appropriate stable medium (MacConkey, Columbia for P. aeruginosa and S. aureus, respectively) and incubated at 37° C. for 24 hrs. After this time, the microbial colonies were counted and the number of cells forming biofilm was assessed. Results were presented as the mean number of CFU per square millimeter surface±standard error of the mean. To calculate the surface area of HA discs, x-ray tomographic analysis was applied. For estimation of the area of test plate bottoms, the equation for circle area: πr^2 was applied.

Another experiment relates to S. aureus 6538. Briefly: Preventative assay, HA spherules pretreated then inoculated with S. aureus. As for the experimental part: Preventative ability of BP-ciprofloxacin conjugate to inhibit S. aureus 6538 adherence to HA spherules: Various BP-ciprofloxacin concentrations were introduced to HA powder (spherules) suspended in TSB microbiological medium. Solutions containing conjugate and HA spherules were introduced to wells of 24-well plates. Final concentrations of powder were 10 mg/1 mL, while final concentrations of the conjugate were 0.12-250 mg/L. Suspensions were left for 24 h/37° C./shaking. After 24 h, suspensions were removed from the wells and impulse-centrifuged to precipitate HA powder. Next, supernatant was very gently discarded and a fresh 1 mL of S. aureus of density 10^5 cfu/mL was introduced to the HA spherules. Subsequently, this solution was shaken, absorbance was measured using 580 nm wavelength and left for 24 h/37° C./shaking. After incubation absorbance was measured again and values from 0 hr and 24 hrs were compared to assess reduction of bacterial growth with regard to control sample one (bacterial suspension but no spherules) and control sample two (bacterial suspension+spherules but with no conjugate added). Additionally, solutions were impulse-centrifuged, supernatant was gently discarded, while bacteria-containing HA spherules were culture plated as before and quantitatively assessed. […]

Experiment [2] relates to S. aureus ATCC6538 biofilms. Put plainly: Survival of S. aureus biofilm on pretreated, rinsed HA discs. To be noted: pretreated HA discs. As for the experimental part: HA discs incubated in DMSO or phosphate buffer served as control samples. Next, discs were rinsed 3 times with sterile water. After rinsing, 2 mL of 0.5 MF of. S. aureus ATCC6538 were introduced to wells containing HA discs as a substrate for biofilm development and biofilms were formed as before.

The subject of experiment [3] is planktonic S. aureus clinical osteomyelitis strains (MSSA and MRSA). Briefly: MIC by microdilution against planktonic clinical S. aureus strains. The conditions noted are these: for antimicrobial activity / MIC against planktonic S. aureus (in words): microdilution, 24 h. As for the experimental part:
(§1) Subsequently, the plate was incubated for 24 h/37° C. in a shaker to obtain optimal conditions for microbial growth and to prevent bacteria from forming biofilms. After incubation, the absorbance was measured once again. The following control samples were established: negative control sample one: sterile medium without microbes; negative control sample two: sterile medium without microbes implemented with DMSO (dimethyl sulfoxide, Sigma-Aldritch) to final concentration of 1% (v/v); positive control sample one: medium+microbes with no compound tested; positive control sample two: medium+microbes with no compound tested but implemented with DMSO to final concentration of 1% (v/v). […] To assess relative number of cells, the following calculations were performed. […] Next, the relative number of cells subjected to incubation with tested compounds were counted as follows: […].
as §1, with “Evaluation of the MIC of tested compounds against planktonic forms of clinical staphylococcal strains analyzed: To assess the impact of parent antibiotic and conjugates on microbial growth, 100 μl of microbial solutions of density 1×10^5 CFU/ml were placed into wells of 96-well test plates together with appropriate concentrations of tested compounds. […] Subsequently,” for “Subsequently,”, “plates were” for “the plate was”, “hrs/37°” for “h/37°”, “Sigma-Aldrich)” for “Sigma-Aldritch)”
The occurrence of opacification or lack of opacification of media was proof of pathogen growth or lack of growth, respectively. Additionally, bacterial solutions were cultured on the appropriate stable medium. Growth or lack of growth of bacterial colonies together with above-mentioned results from liquid cultures served as confirmation of results obtained spectrophotometrically.
(In general: Broth dilution looks for growth in wells or tubes with falling amounts of substance.)

For the compound `O=C(O)c1cn(C2CC2)c2cc(N3CCN(C(=O)c4ccc(CC(P(=O)(O)O)P(=O)(O)O)cc4)CC3)c(F)cc2c1=O` [Compound 11, 1-cyclopropyl-7-(4-(4-(2,2-diphosphonoethyl)benzoyl)piperazin-1-yl)-6-fluoro-4-oxo-1,4-dihydroquinoline-3-carboxylic acid], the “bactericidal activity / reduction of CFUs against established biofilm (in words)” value in experiment [1] was “insignificant; also recorded: No significant activity is observed at any concentration”. Also, in the experiment with S. aureus 6538, the “preventative antimicrobial activity on pretreated HA (in words)” value is reported as “insignificant; also recorded: not detectable; also recorded: no antimicrobial activity is observed”. The “ability to prevent biofilm formation on pretreated HA (in words)” value was “no significant antimicrobial activity” in experiment [2] and “did not inhibit the growth of biofilms on bone substitute even at very high concentrations” in experiment [2] (listed as BAC). The “concentration of 11 relative to 6 to achieve the same antibacterial effect” value in experiment [3] (MIC assay, S. aureus strains) is on record as 2-64 ×. For the same compound, the “antimicrobial activity / MIC against planktonic S. aureus (in words)” value in experiment [3] was “weaker activity”; in experiment [3] (listed as BAC), “very little effect on bacterial growth under any circumstances; also recorded: has lost most of the activity”.
